Here are results for 2 compounds from ChEMBL document CHEMBL1221208, “ATP-competitive inhibitors of the mitotic kinesin KSP that function via an allosteric mechanism” (Nat Chem Biol, 2007).

Test [1] deals with Kinesin-like protein KIF11 (Homo sapiens, UniProt P52732, D130V). As to the kind of experiment: Inhibition of human KSP D130V mutant using varying ATP levels in presence of saturating levels of microtubule by Lineweaver-Burke plot.
The subject of test [2] is T1, Kinesin-like protein KIF11 (Homo sapiens), P52732 [D130V].
T1 sequence (whole entry): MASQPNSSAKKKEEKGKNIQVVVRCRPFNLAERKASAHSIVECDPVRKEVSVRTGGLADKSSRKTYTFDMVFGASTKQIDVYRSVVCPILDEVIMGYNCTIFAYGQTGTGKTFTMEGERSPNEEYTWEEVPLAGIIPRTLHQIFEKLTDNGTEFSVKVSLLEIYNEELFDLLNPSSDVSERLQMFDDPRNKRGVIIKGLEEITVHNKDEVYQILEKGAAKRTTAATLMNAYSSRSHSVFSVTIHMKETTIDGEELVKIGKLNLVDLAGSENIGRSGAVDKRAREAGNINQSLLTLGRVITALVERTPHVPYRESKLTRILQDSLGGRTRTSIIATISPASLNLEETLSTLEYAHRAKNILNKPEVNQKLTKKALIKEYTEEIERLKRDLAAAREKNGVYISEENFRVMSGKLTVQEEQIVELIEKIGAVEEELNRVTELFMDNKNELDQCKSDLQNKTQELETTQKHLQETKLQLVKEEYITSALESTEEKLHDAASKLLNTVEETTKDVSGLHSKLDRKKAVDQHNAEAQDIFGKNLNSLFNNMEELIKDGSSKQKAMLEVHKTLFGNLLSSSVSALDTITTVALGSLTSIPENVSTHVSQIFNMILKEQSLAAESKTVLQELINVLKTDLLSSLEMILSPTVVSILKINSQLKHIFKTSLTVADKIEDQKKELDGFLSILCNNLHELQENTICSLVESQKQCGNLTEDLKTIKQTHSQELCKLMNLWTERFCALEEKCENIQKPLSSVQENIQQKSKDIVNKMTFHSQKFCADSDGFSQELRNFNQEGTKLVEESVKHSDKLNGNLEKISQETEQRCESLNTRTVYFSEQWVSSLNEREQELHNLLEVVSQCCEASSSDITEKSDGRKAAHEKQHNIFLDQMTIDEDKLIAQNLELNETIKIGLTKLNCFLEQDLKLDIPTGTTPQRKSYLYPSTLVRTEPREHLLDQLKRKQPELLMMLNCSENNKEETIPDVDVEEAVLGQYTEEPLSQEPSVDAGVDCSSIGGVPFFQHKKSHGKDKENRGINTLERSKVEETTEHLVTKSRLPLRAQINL
As to the kind of experiment: Competitive inhibition of human KSP D130V mutant with respect to ATP using varying ATP levels in presence of saturating levels of microtubule by Lineweaver-Burke plot.

For another test, the species on record is Homo sapiens. As to the kind of experiment: Competitive inhibition of human KSP KHC-L5 mutant with respect to ATP using varying ATP levels in presence of saturating levels of microtubule by Lineweaver-Burke plot.
The test system of test [3] is T2, Kinesin-like protein KIF11 (Homo sapiens), P52732 [A133D].
T2 sequence (whole entry): T1 sequence (whole entry) with V130D, A133D
As to the kind of experiment: Competitive inhibition of human KSP A133D mutant with respect to ATP using varying ATP levels in presence of saturating levels of microtubule by Lineweaver-Burke plot.

Structures are written as SMILES. Changes are numbered by the printed parent chain. Activity calls are given as the source filed them. The calls are words filed in the database; no cut-off is given here.

As to `O=C1CCc2cc(-c3ccc(C(F)(F)F)cc3)ccc2N1`, in test [1], the Ki (in general, the equilibrium dissociation constant of an inhibitor or competing ligand from its target) turned out to be 2.2 nM. The inhibition result (in test [2]; in the test listed under Homo sapiens; in test [3]) was “Active” each time.
On to `NC(=O)Nc1ccc(-c2ccc(C(F)(F)F)cc2)cc1F`, for which, in test [1], the Ki is 10 nM. Besides, the inhibition entry (in test [2]; in the test filed under Homo sapiens; in test [3]) was “Active” in each case.
